Laboratory results from article PMC9530881 (Cancer Science, 2022).

Key:
[1] = test system: ALK7; settings: ref [26]; cited from earlier work
[2] = test system: TGF‐β; assay type: cell-based; settings: HepG2, (SBE)4-luc; TGF-β 5 ng/ml, 8 h; MID-35 3 μM or SB-431542 10 μM, 1 h pretreatment; n = 3
[3] = test system: ALK5; settings: ref [26]; cited from earlier work
[4] = test system: ALK4; settings: ref [26]; cited from earlier work
[5] = test system: MSTN; assay type: cell-based; settings: HepG2, (SBE)4-luc; MSTN 10 ng/ml, 8 h; MID-35 3 μM or SB-431542 10 μM, 1 h pretreatment; n = 3
[6] = test system: GDF‐11; assay type: cell-based; settings: HepG2, (SBE)4-luc; GDF-11 10 ng/ml, 8 h; MID-35 3 μM or SB-431542 10 μM, 1 h pretreatment; n = 3
[7] = test system: MSTN; assay: Smad2/3 nuclear localization induced by MSTN in C2C12 cells; assay type: cell-based; settings: MID-35 3 μM or SB-431542 10 μM preincubated 1 h with MSTN 10 ng/ml
[8] = men who received 100 mg in a clinical trial; ref not given; cited from earlier work
[9] = test system: cancer cachexia patients; settings: cited from earlier work
[10] = test system: ghrelin receptor; settings: ref [8]; cited from earlier work
[11] = test system: cancer cachexia model mice (LLC cells); assay: LLC cancer cachexia model mice, MID-35 and/or anamorelin; assay type: in vivo, C57BL/6J mice; settings: MID-35 i.m. and/or anamorelin p.o.; 22 days after LLC transplantation; Figure 6B
[12] = test system: vascular function; settings: via binding to BMP9 and BMP10; ref [36]; cited from earlier work
[13] = patients with non-small-cell lung cancer, ref [9], [10], [11]

For `NC(=O)c1ccc(-c2nc(-c3ccc4c(c3)OCO4)c(-c3ccccn3)[nH]2)cc1` [SB‐431542], the ALK7 kinase inhibition [1] is given as “known kinase inhibitor”, the “inhibition of TGF-β-induced reporter activity” value [2] is given as “suppressed” and the ALK5 kinase inhibition [3] is given as “known kinase inhibitor”. For the same molecule, the ALK4 kinase inhibition [4] was “known kinase inhibitor”, the “inhibition of MSTN-induced transcriptional activity” value [5] was “suppressed” and the “inhibition of GDF-11-induced reporter activity” value [6] was “suppressed”. For the same molecule, the Smad2 nuclear accumulation [7] was “completely blocked”.

For `CN(C)N(C)C(=O)[C@@]1(Cc2ccccc2)CCCN(C(=O)[C@@H](Cc2c[nH]c3ccccc23)NC(=O)C(C)(C)N)C1` [anamorelin], the “plasma Cmax average” value [8] is given as 707 ± 307 ng/mL, the lean body mass ([9]; clinical trial, cancer cachexia patients, ref not given) is given as “increased lean body mass” and the appetite ([9]; patients with cancer cachexia, oral, ref [8]) is given as “augments appetite”. The QOL [9, 13] was “improvement of QOL”, the weight gain [9, 13] was “contribute to weight gain” and the ghrelin receptor activity [10] was “ghrelin receptor agonist”. For the same molecule, the “gastrocnemius weight per body weight without tumor” value [11] was “increased”.

B1: ActRIIB: activin receptor type IIB; binds to both BMP9 and BMP10 (protein, UniProt Q13705 19-512, looked up)
Activin receptor type-2B: SGRGEAETRECIYYNANWELERTNQSGLERCEGEQDKRLHCYASWRNSSGTIELVKKGCWLDDFNCYDRQECVATEENPQVYFCCCEGNFCNERFTHLPEAGGPEVTYEPPPTAPTLLTVLAYSLLPIGGLSLIVLLAFWMYRHRKPPYGHVDIHEDPGPPPPSPLVGLKPLQLLEIKARGRFGCVWKAQLMNDFVAVKIFPLQDKQSWQSEREIFSTPGMKHENLLQFIAAEKRGSNLEVELWLITAFHDKGSLTDYLKGNIITWNELCHVAETMSRGLSYLHEDVPWCRGEGHKPSIAHRDFKSKNVLLKSDLTAVLADFGLAVRFEPGKPPGDTHGQVGTRRYMAPEVLEGAINFQRDAFLRIDMYAMGLVLWELVSRCKAADGPVDEYMLPFEEEIGQHPSLEELQEVVVHKKMRPTIKDHWLKHPGLAQLCVTIEECWDHDAEARLSAGCVEERVSLIRRSVNGTTSDCLVSLVTSVTNVDLPPKESSI
In the case of B1, the vascular side-effects [12] is given as “vascular side‐effects”.
